These results are taken from patent publication US12668607B2, “Heterocyclic amide compound, preparation method therefor and use thereof” (SHANGHAI JEYOU PHARMACEUTICAL CO., LTD., priority 2019, dated 2026).

Molecules are shown by their SMILES.

One experiment deals with T1, human STING protein (Homo sapiens, UniProt Q86WV6, H232R).
T1 construct: from the 140th amino acid to the 379th amino acid; 6His-SUMO (N, cleaved yes); made in house
Kind of experiment: STING in vitro binding assay (fluorescence polarization, FP affinity assay). As to conditions: competition with 30 nM fluorescein-labeled c-di-GMP, 10 μM recombinant human wild-type STING C-terminal protein (aa 140-379), 30 min room temperature. How it is done:
Fluorescence polarization assay (FP assay) was used to detect the affinities of compounds to a human STING protein. The reaction system contained a certain amount of fluorescein labeled C-di-GMP and compounds to be detected with different concentrations, and when the C-terminal protein of the recombinant human STING was added, the two small molecules were competitively bound with the protein. The bound fluorescein-labeled c-di-GMP rotated slowly in the liquid phase, and at this point, the degree of fluorescence polarization detected was also high. The fluorescence polarization degree was in inverse relation with the concentrations and the affinities of the compounds to be detected. By detecting the magnitude of the polarized light in the reaction system, the affinities of the compounds to be detected to human STING could be accurately known.
The N-terminal of the recombinant STING protein was a 6His-SUMO sequence to facilitate correct protein folding and purification, and after protease cleavage, the C-terminal STING was used for FP assay.
In FP assay, a 384-well plate was used, with the fluorescein-labeled c-di-GMP with a final concentration of 30 nM, 10 μM human STING protein, and either reference compounds with different concentrations or the compounds to be detected added into 10 μL of the reaction system each well. The plate was centrifuged at 1000 g for 1 min, incubated at room temperature for 30 min in the dark and read with Envision.

Another experiment concerns THP1-Dual™ cells. As to the kind of experiment: THP-Dual in vitro binding assay (THP1-Dual reporter cells, Lucia luciferase/QUANTI-Luc). It counts as cell-based, human. As to conditions: 30 min compound exposure, wash, 18 h incubation, IF-α/β activity by QUANTI-Luc. From the text:
The THP1-Dual™ cells used in the assay (InvivoGen, Catalog code: thpd-nfis) were constructed by stable integration of two inducible reporter genes in the human monocyte-like cell line THP1. The promoter sequence of the secretory embryo alkaline phosphatase (SEAP) reporter gene comprised an IFN-β basal promoter, 5 copies of NF-κB coexpression transcriptional response elements (NF-κB consensus transcriptional response elements) at the upstream and 3 copies of c-Rel binding sites. The secreted luciferase (Lucia) reporter gene was driven by 5 interferon-stimulated response elements (IFN-stimulated response elements) and a basal promoter of ISG54, thus making it possible to study two major downstream signaling pathways of STING simultaneously: the NF KB pathway was studied by assaying the SEAP activity; and the IRF pathway was studied by assessing the activity of Lucia luciferase.
To each well of a 96-well plate were added 20 μL of reference compounds or the compounds to be detected followed by the addition of 180 μL of THP1-Dual™ cell-containing FBS-free RPMI-1640 culture medium (about 90,000 cells/well). After incubating at 37° C. for 30 min under 5% CO2, the plate was centrifuged at 1000 rpm for 10 min, the supernatant was discarded, and the plate was washed twice with RPMI-1640 at 200 μL/well, and incubated for 18 h with RPMI-1640 at 200 µL/well. IF-α/β activity was quantified using QUANTI-Luc™ prepared and used according to the manufacturer's instructions.

For a further experiment, the system named is colon cancer cells CT26. Kind of experiment: Drug efficacy evaluation in CT26 syngeneic mouse model. Type of experiment: in vivo, Balb/C mice. To be noted: CT26 subcutaneous tumors. How it is done: The compound efficacy evaluation was carried out by a CT26 syngeneic mouse model in this experiment. 3E5 colon cancer cells CT26 (ATCC-CRL-2638) were inoculated subcutaneously into 6-8 week-old Balb/C mice (Shanghai Lingchang Biotechnology Co., Ltd.), and the mice were randomly divided grouped, 6 mice per group when the tumor volume reached 100 mm^3. Intratumoral administration was performed on day 1 after grouping. Compound 1 was administered at a dose of 1 μg per mouse, 0.1 μg per mouse and 0.01 μg per mouse, respectively, for each group. Tumor volume measurements were taken three times a week after the start of administration. The calculation formula for tumor volume was: V=0.5a×b^2, with a and b representing the long and short diameters of the tumor, respectively. Each point is the mean and standard error of mean (SEM) of the tumor volume. Differences between control (saline) and administered groups were statistically analyzed using two-way ANOVA (statistical differences on day 15: Prism 8, ****p<0.0001).

T1 sequence (Q86WV6 140-379 H232R): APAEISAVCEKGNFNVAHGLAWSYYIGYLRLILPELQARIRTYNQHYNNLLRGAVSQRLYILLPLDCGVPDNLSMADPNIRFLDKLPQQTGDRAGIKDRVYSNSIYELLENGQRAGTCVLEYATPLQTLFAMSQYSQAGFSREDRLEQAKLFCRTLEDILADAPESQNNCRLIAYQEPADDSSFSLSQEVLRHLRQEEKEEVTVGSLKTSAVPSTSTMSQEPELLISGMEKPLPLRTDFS

As usually defined, the IC50 is the concentration that gives 50% inhibition. For orientation: EC50 means the concentration needed to bring the measured effect to its halfway point. As to `CCn1nc(C)cc1C(=O)/N=c1/[nH]c2cc(C(N)=O)cc(OC)c2n1C/C=C/Cn1/c(=N/C(=O)c2cc(C)nn2CC)[nH]c2cc(C(N)=O)cc(OCCN3CCCC4(CCNC4)C3)c21` (centres unmarked) [Compound 6], the IC50 on human STING protein came to 2200 nM. The molecule also showed an EC50 with THP1-Dual™ cells (Homo sapiens) of 2100 nM.

Regarding `CCn1nc(C)cc1C(=O)/N=c1/[nH]c2cc(C(N)=O)cc(OC)c2n1C/C=C/Cn1/c(=N/C(=O)c2cc(C)nn2CC)[nH]c2cc(C(N)=O)cc(OCCCO[C@H]3[C@@H](OC)O[C@H](CO)[C@@H](O)[C@@H]3O)c21` [Compound 1], the IC50 at human STING protein worked out at 400 nM. Moreover, the midpoint of the response in the experiment with THP1-Dual™ cells (Homo sapiens), the EC50, lay at 21 nM. For the same molecule, in the experiment with colon cancer cells CT26 (intratumoral administration day 1, 1, 0.1 and 0.01 μg per mouse, two-way ANOVA day 15 ****p<0.0001 vs saline), the “tumor growth speed compared with the control group” value is “significantly slowed down”. In the experiment with colon cancer cells CT26 (intratumoral, 1, 0.1 and 0.01 μg per mouse), the “inhibition of tumor growth in mice (dose relation)” value is recorded as “dose-dependent”.

On to `CCn1nc(C)cc1C(=O)/N=c1/[nH]c2cc(C(N)=O)cc(OC)c2n1C/C=C/Cn1/c(=N/C(=O)c2cc(C)nn2CC)[nH]c2cc(C(N)=O)cc(OCCCN3CC4(COC4)C3)c21` [Compound 7], for which the IC50 at human STING protein amounted to 3800 nM. In the experiment on THP1-Dual™ cells (Homo sapiens), the EC50 is 80 nM.

With `CCn1nc(C)cc1C(=O)/N=c1/[nH]c2cc(C(N)=O)cc(OCCCN3CCOCC3)c2n1C/C=C/Cn1/c(=N/C(=O)c2cc(C)nn2CC)[nH]c2cc(C(N)=O)cc(OCCCO[C@H]3[C@@H](OC)O[C@H](CO)[C@@H](O)[C@@H]3O)c21` [Compound 4], the IC50 at human STING protein stood at 1600 nM. Further, a half-maximal effect in the experiment on THP1-Dual™ cells (Homo sapiens) (EC50) was put at 520 nM.

Turning to `CCn1nc(C)cc1C(=O)/N=c1/[nH]c2cc(C(N)=O)cc(OC)c2n1C/C=C/Cn1/c(=N/C(=O)c2cc(C)nn2CC)[nH]c2cc(C(N)=O)cc(OCCCOC(=O)[C@@H](N)C(C)C)c21` [Compound 2], the IC50 at human STING protein came to 1700 nM. Moreover, the EC50 in the experiment with THP1-Dual™ cells (Homo sapiens) came to 8 nM.

As for `Nc1ncnc2c1ncn2[C@@H]1O[C@@H]2COP(O)(=S)O[C@@H]3C(O)[C@@H](COP(O)(=S)O[C@H]2[C@H]1O)O[C@H]3n1cnc2c(N)ncnc21` (some centres unmarked) [ML RR-S2 CDA, reference compound], in the experiment on THP1-Dual™ cells, a half-maximal response (EC50) required 18200 nM.

Consider `CCn1nc(C)c2c1C(=O)/N=C1\Nc3cc(C(N)=O)cc(OCCCO[C@H]4[C@@H](OC)O[C@H](CO)[C@@H](O)[C@@H]4O)c3N1C/C=C/CN1/C(=N\C(=O)c3cc(C)nn3CCCCC2)Nc2cc(C(N)=O)cc(OC)c21` [Compound 5], for which, on human STING protein, the IC50 was 1500 nM. This molecule also gave a concentration giving a half-maximal response (EC50) in the experiment on THP1-Dual™ cells (Homo sapiens) of 60 nM.

As to `CCn1nc(C)cc1C(=O)/N=c1/[nH]c2cc(C(N)=O)cc(OC)c2n1C/C=C/Cn1/c(=N/C(=O)c2cc(C)nn2CC)[nH]c2cc(C(N)=O)cc(OCCCO[C@H]3[C@H](OC)O[C@H](CO)[C@H]3O)c21` [Compound 3], on human STING protein, the IC50 was found to be 3700 nM. In the experiment on THP1-Dual™ cells (Homo sapiens), this molecule gave an EC50 of 40 nM.
